Values after ≈ are worked out from the molar mass of the structure shown. Where two headings read alike, the source gives them in different places.
Key:
[1] = system: E. coli DH10B pBCSK-; experiment: microbe, parasite or virus in culture; settings: Escherichia coli, DH10BPBCSK, read-out: MIC
[2] = target: T1, VIM-2 (Pseudomonas aeruginosa, UniProt Q9K2N0); settings: read-out: Parameter by metallo-β-lactamase / VIM-2 / KM; 50 mM HEPES pH 7.0, 10 μM added ZnSO4, 25°C
T1 construct: gene blaVIM-2

[3] = system: E. coli DH10B pBCSK- blaVIM-2; experiment: microbe, parasite or virus in culture; settings: Escherichia coli, read-out: MIC
[4] = target: T1, VIM-2; settings: read-out: Parameter by metallo-β-lactamase / VIM-2 / KM; 50 mM HEPES pH 7.0, 10 μM added ZnSO4, 25°C; remark: listed apart in the source
[5] = target: T1, VIM-2; settings: read-out: Parameter by metallo-β-lactamase / VIM-2 / KM; 50 mM HEPES pH 7.0, 10 μM added ZnSO4, 25°C; remark: listed apart in the source
[6] = target: T1, VIM-2; experiment: initial-rate hydrolysis, absorbance […] nm (product formation); type: biochemical; settings: read-out: Parameter by metallo-β-lactamase / VIM-2 / KM; 50 mM HEPES pH 7.0, 10 μM added ZnSO4, 25°C

## CC1(C)S[C@@H]2[C@H](NC(=O)[C@H](N)c3ccccc3)C(=O)N2[C@H]1C(=O)O [Ampicillin]
[1]
  MIC: 4 µg/mL (≈ 11.4 µM)
[2]
  Km: 84 ± 7 µM
[3]
  MIC: 1020 µg/mL (≈ 2930 µM)

## CC(C)(O/N=C(\C(=O)N[C@@H]1C(=O)N2C(C(=O)[O-])=C(C[n+]3ccccc3)CS[C@H]12)c1csc(N)n1)C(=O)O [Ceftazidime]
[1]
  MIC: 0.5 µg/mL (≈ 0.915 µM)
[3]
  MIC: 32 µg/mL (≈ 58.5 µM)
[4]
  Km: 90 ± 11 µM

## CC(=O)OCC1=C(C(=O)O)N2C(=O)[C@@H](NC(=O)Cc3cccs3)[C@H]2SC1 [Cephalothin]
[1]
  MIC: 4 µg/mL (≈ 10.1 µM)
[3]
  MIC: 256 µg/mL (≈ 646 µM)

## C[C@@H](O)[C@H]1C(=O)N2C(C(=O)O)=C(S[C@@H]3CN[C@H](C(=O)Nc4cccc(C(=O)O)c4)C3)[C@H](C)[C@H]12 [Ertapenem]
[1]
  MIC: 0.0075 µg/mL (≈ 0.0158 µM)
[3]
  MIC: 0.25 µg/mL (≈ 0.526 µM)

## C[C@@H](O)[C@H]1C(=O)N2C(C(=O)O)=C(SCCNC=N)C[C@H]12 [Imipenem]
[1]
  MIC: 0.5 µg/mL (≈ 1.67 µM)
[3]
  MIC: 4 µg/mL (≈ 13.4 µM)

## C[C@@H](O)[C@H]1C(=O)N2C(C(=O)O)=C(S[C@@H]3CN[C@H](C(=O)N(C)C)C3)[C@H](C)[C@H]12 [Meropenem]
[1]
  MIC: 0.03 µg/mL (≈ 0.0782 µM)
[5]
  Km: 5 ± 0.8 µM
[3]
  MIC: 0.5 µg/mL (≈ 1.3 µM)

## Chromacef
[6]
  Km: 11 ± 2 µM
